Assay results as given in patent US6355799B1, “Substituted benzene compounds, process for their preparation, and herbicidal and defoliant compositions containing them” (ISK Americas Incorporated, priority 1997, dated 2002).

Assays:
Type in all cases: in vivo
[1] = system: velvetleaf (Abutilon theophrasti, ABUTH); experiment: Pre-emerge test, greenhouse herbicide activity screening; details: pre-emerge, phytotoxicity rating 0-100 at 14 days after application
From the text: (§1) A standard greenhouse herbicide activity screening system was used to evaluate the herbicidal efficacy and crop safety of these test compounds. Seven broadleaf weed species including redroot pigweed (Amaranthus retroflexus, AMARE, velvetleaf (Abutilon theophrasti, ABUTH), sicklepod (Cassia obtusifolia, CASOB), ivyleaf morningglory (Ipomoea hederacea, IPOHE), lambsquarters (Chenopodium album, CHEAL), common ragweed (Ambrosia artemisizfolia L., AMBEL), and cocklebur (Xanthium strumarium, XANST) were used as test species. Four grass weed species including green foxtail (Setaria viridis, SETVI), barnyardgrass (Echinochloa crus-galli, ECHCG), johnsongrass (Sorghum halepense, SORHA), and large crabgrass (Digitaria sanguinalis, DIGSA) were also used. In addition, three crop species, field corn (Zea mays L., var. Dekalb 535, CORN), soybean (Glycine max L., var. Pella 86, SOY), and is upland rice (Oryza sp., var. Tebonnet, RICE) were included.
(§2) All plants were grown in 10 cm square plastic pots which were filled with a sandy loam soil mix. For pre-emerge tests, seeds were planted one day prior to application of the test compounds. For post-emerge tests, seeds were planted 8-21 days prior to the test to allow emergence and good foliage development prior to application of the test substances. At the time of the post-emerge application, plants of all species were usually at the 2-3 leaf stage of development.
(§3) All test compounds Were dissolved in acetone and applied to the test units in a volume of 187 l /ha. Test materials were applied at rates ranging from 15 g ai/ha to 1000 g ai/ha using a track sprayer equipped with a TJ8001E even flow flat fan spray nozzle. Plants were arranged on a shelf so that the top of the canopy (post-emerge) or top of the soil surface (pre-emerge) was 40-45 cm below the nozzle. Pressurized air was used to force the test solution through the nozzle as it was mechanically advanced (via electrically driven chain drive) over the top of all test plants/pots. This application simulates a typical commercial field herbicide application.
(§4) In the post-emerge test, a commercial non-ionic surfactant was also included (0.25% v/v) to enhance wetting of the leaf surfaces of target plants. Immediately after application, test units of the pre-emerge applications were watered at the soil surface to incorporate the test materials. Subsequently, these test units were bottom-watered. Post-emerge test units were always bottom-watered.
(§5) At 14 days after application of the test materials, phytotoxicity ratings were recorded. A rating scale of 0-100 was used as previously described in Research Methods in Weed Science, 2nd edition, B. Truelove, Ed., Southern Weed Science Society, Auburn University, Auburn, Ala. 1977. Briefly, “0” corresponds to no damage and “100” corresponds to complete death of all plants in the test unit. This scale was used both to determine efficacy against weed species and damage to crop species. Herbicide activity data for various compounds of this invention, which are shown by compound No. in Tables 1-8, are shown in Tables 11 and 12.

[2] = system: lambsquarters (Chenopodium album, CHEAL); experiment: as above; details: pre-emerge, phytotoxicity rating 0-100 at 14 days after application
From the text: as §1, §2, §3, §4, §5

[3] = system: barnyardgrass (Echinochloa crus-galli, ECHCG); experiment: as above; details: pre-emerge, phytotoxicity rating 0-100 at 14 days after application
From the text: as §1, §2, §3, §4, §5

[4] = system: ivyleaf morningglory (Ipomoea hederacea, IPOHE); experiment: as above; details: pre-emerge, phytotoxicity rating 0-100 at 14 days after application
From the text: as §1, §2, §3, §4, §5

[5] = system: green foxtail (Setaria viridis, SETVI); experiment: as above; details: pre-emerge, phytotoxicity rating 0-100 at 14 days after application
From the text: as §1, §2, §3, §4, §5

[6] = system: large crabgrass (Digitaria sanguinalis, DIGSA); experiment: as above; details: pre-emerge, phytotoxicity rating 0-100 at 14 days after application
From the text: as §1, §2, §3, §4, §5

[7] = system: sicklepod (Cassia obtusifolia, CASOB); experiment: as above; details: pre-emerge, phytotoxicity rating 0-100 at 14 days after application
From the text: as §1, §2, §3, §4, §5

[8] = system: upland rice (Oryza sp., var. Tebonnet, RICE); experiment: Post-emerge test, crop safety; details: post-emerge, crop damage rating 0-100 at 14 days after application
From the text: as §1, §2, §3, §4, §5

[9] = system: field corn (Zea mays L., var. Dekalb 535, CORN); experiment: Post-emerge test, crop safety; details: post-emerge, crop damage rating 0-100 at 14 days after application
From the text: as §1, §2, §3, §4, §5

[10] = system: upland rice (Oryza sp., var. Tebonnet, RICE); experiment: Pre-emerge test, crop safety; details: crop damage, pre-emerge, phytotoxicity rating 0-100 at 14 days after application
From the text: as §1, §2, §3, §4, §5

[11] = system: field corn (Zea mays L., var. Dekalb 535, CORN); experiment: Pre-emerge test, crop safety; details: crop damage, pre-emerge, phytotoxicity rating 0-100 at 14 days after application
From the text: as §1, §2, §3, §4, §5

[12] = system: redroot pigweed (Amaranthus retroflexus, AMARE); experiment: Pre-emerge test, greenhouse herbicide activity screening; details: pre-emerge, phytotoxicity rating 0-100 at 14 days after application
From the text: as §1, §2
as §3, with “Test materials were applied at rates ranging from 15 g ai/ha to 1000 g ai/ha using a track sprayer equipped with a TJ8001E even flow flat fan spray nozzle.” left out
as §4, §5

[13] = system: velvetleaf (Abutilon theophrasti, ABUTH); experiment: Post-emerge test, greenhouse herbicide activity screening; details: post-emerge, phytotoxicity rating 0-100 at 14 days after application
From the text: as §1, §2, §3, §4, §5

[14] = system: lambsquarters (Chenopodium album, CHEAL); experiment: as above; details: post-emerge, phytotoxicity rating 0-100 at 14 days after application
From the text: as §1, §2, §3, §4, §5

[15] = system: barnyardgrass (Echinochloa crus-galli, ECHCG); experiment: as above; details: post-emerge, phytotoxicity rating 0-100 at 14 days after application
From the text: as §1, §2, §3, §4, §5

[16] = system: redroot pigweed (Amaranthus retroflexus, AMARE); experiment: as above; details: post-emerge, phytotoxicity rating 0-100 at 14 days after application
From the text: as §1, §2, §3, §4, §5

[17] = system: ivyleaf morningglory (Ipomoea hederacea, IPOHE); experiment: as above; details: post-emerge, phytotoxicity rating 0-100 at 14 days after application
From the text: as §1, §2, §3, §4, §5

[18] = system: green foxtail (Setaria viridis, SETVI); experiment: as above; details: post-emerge, phytotoxicity rating 0-100 at 14 days after application
From the text: as §1, §2, §3, §4, §5

[19] = system: large crabgrass (Digitaria sanguinalis, DIGSA); experiment: as above; details: post-emerge, phytotoxicity rating 0-100 at 14 days after application
From the text: as §1, §2, §3, §4, §5

[20] = system: sicklepod (Cassia obtusifolia, CASOB); experiment: as above; details: post-emerge, phytotoxicity rating 0-100 at 14 days after application
From the text: as §1, §2, §3, §4, §5

What does the source list for `Cc1c(Cl)cc(F)c(-n2c(=O)cc(C(F)(F)F)n(C)c2=O)c1NC(=O)OCc1ccco1` [4-70]?
Pre-emerge Herbicidal Activity ABUTH ([1]; rate 63 g ai/ha): 100; Pre-emerge Herbicidal Activity ABUTH ([1]; rate 250 g ai/ha): 100; Pre-emerge Herbicidal Activity CHEAL ([2]; rate 63 g ai/ha): 100; Pre-emerge Herbicidal Activity CHEAL ([2]; rate 250 g ai/ha): 100; Pre-emerge Herbicidal Activity ECHCG ([3]; rate 63 g ai/ha): 40; Pre-emerge Herbicidal Activity ECHCG ([3]; rate 250 g ai/ha): 95; Pre-emerge Herbicidal Activity IPOHE ([4]; rate 63 g ai/ha): 100; Pre-emerge Herbicidal Activity IPOHE ([4]; rate 250 g ai/ha): 100; Pre-emerge Herbicidal Activity SETVI ([5]; rate 63 g ai/ha): 60; Pre-emerge Herbicidal Activity SETVI ([5]; rate 250 g ai/ha): 100; Pre-emerge Herbicidal Activity DIGSA ([6]; rate 63 g ai/ha): 60; Pre-emerge Herbicidal Activity DIGSA ([6]; rate 250 g ai/ha): 100; Pre-emerge Herbicidal Activity CASOB ([7]; rate 63 g ai/ha): 50; Pre-emerge Herbicidal Activity CASOB ([7]; rate 250 g ai/ha): 80; Post-emerge Herbicidal Activity RICE ([8]; 63 g ai/ha): 30; Post-emerge Herbicidal Activity RICE ([8]; 250 g ai/ha): 70; Post-emerge Herbicidal Activity CORN ([9]; 63 g ai/ha): 40; Post-emerge Herbicidal Activity CORN ([9]; 250 g ai/ha): 90; Pre-emerge Herbicidal Activity RICE ([10]; rate 63 g ai/ha): 40; Pre-emerge Herbicidal Activity RICE ([10]; rate 250 g ai/ha): 70; Pre-emerge Herbicidal Activity CORN ([11]; rate 63 g ai/ha): 90; Pre-emerge Herbicidal Activity CORN ([11]; rate 250 g ai/ha): 95; Pre-emerge Herbicidal Activity AMARE ([12]; rate 63 g ai/ha): 100; Pre-emerge Herbicidal Activity AMARE ([12]; rate 250 g ai/ha): 100; Post-emerge Herbicidal Activity ABUTH ([13]; 63 g ai/ha): 100; Post-emerge Herbicidal Activity ABUTH ([13]; 250 g ai/ha): 100; Post-emerge Herbicidal Activity CHEAL ([14]; 63 g ai/ha): 90; Post-emerge Herbicidal Activity CHEAL ([14]; 250 g ai/ha): 100; Post-emerge Herbicidal Activity ECHCG ([15]; 63 g ai/ha): 40; Post-emerge Herbicidal Activity ECHCG ([15]; 250 g ai/ha): 80; Post-emerge Herbicidal Activity AMARE ([16]; 63 g ai/ha): 90; Post-emerge Herbicidal Activity AMARE ([16]; 250 g ai/ha): 100; Post-emerge Herbicidal Activity IPOHE ([17]; 63 g ai/ha): 100; Post-emerge Herbicidal Activity IPOHE ([17]; 250 g ai/ha): 100; Post-emerge Herbicidal Activity SETVI ([18]; 63 g ai/ha): 60; Post-emerge Herbicidal Activity SETVI ([18]; 250 g ai/ha): 95; Post-emerge Herbicidal Activity DIGSA ([19]; 63 g ai/ha): 30; Post-emerge Herbicidal Activity DIGSA ([19]; 250 g ai/ha): 70; Post-emerge Herbicidal Activity CASOB ([20]; 63 g ai/ha): 60; Post-emerge Herbicidal Activity CASOB ([20]; 250 g ai/ha): 90
